The values that follow come from patent US11629354B2, “Grain with increased nicotianamine” (The United States of America, as represented by the …, priority 2020, dated 2023).

Common to all, as to format: in vivo, chicken
For test [1], the system named is Lactobacillus, Bifidobacterium, Escherichia, and Clostridium. The experiment in a line: Intraamniotic administration: cecal microbial population analysis. An excerpt:
To generate extracts for administration, wheat flours (CE-OsNAS2, hereinafter “biofortified”; and NS, hereinafter “control”) were mixed in dH2O (50 g/L), filtered (600 μm) and centrifuged, and the resulting supernatant was dialyzed (MWCO 12-14 kDa, Medicell International Ltd., London, UK) exhaustively against dH2O (48 hrs). The dialysate was lyophilized, and the resulting powder dissolved in 18MΩ H2O (0.05 g/mL) forming the white wheat flour extracts for intra-amniotic administration. Iron solutions were prepared by combining an Fe standard (1000 μg/mL, 2% HCl, High-Purity Standards, Charleston, S.C., USA) with either 18MΩ H2O (Fe), or 1.6 mM NA (Toronto Research Chemicals Inc., Toronto, Canada) dissolved in 18MΩ H2O (Fe-NA). […]
Microbial population analysis. Lactobacillus, Bifidobacterium, Escherichia, and Clostridium density in intraamniotic administration treatment groups was determined as follows: in brief, cecal contents were homogenized with phosphate-buffered saline (PBS, 9 ml), centrifuged and the pellet resuspended in ethylenediaminetetraacetic acid (EDTA, 50 mM) and treated (37° C., 45 min) with lysozyme (10 mg/mL, Sigma Aldrich CO., St. Louis, Mo., USA). […]

Test [2] is described as follows: Intraamniotic administration: Fe and Zn concentration in blood serum and liver. The settings on record: relative to unchelated Fe (Fe) and non-injected groups. An excerpt: (§1) To generate extracts for administration, wheat flours (CE-OsNAS2, hereinafter “biofortified”; and NS, hereinafter “control”) were mixed in dH2O (50 g/L), filtered (600 μm) and centrifuged, and the resulting supernatant was dialyzed (MWCO 12-14 kDa, Medicell International Ltd., London, UK) exhaustively against dH2O (48 hrs). The dialysate was lyophilized, and the resulting powder dissolved in 18MΩ H2O (0.05 g/mL) forming the white wheat flour extracts for intra-amniotic administration. Iron solutions were prepared by combining an Fe standard (1000 μg/mL, 2% HCl, High-Purity Standards, Charleston, S.C., USA) with either 18MΩ H2O (Fe), or 1.6 mM NA (Toronto Research Chemicals Inc., Toronto, Canada) dissolved in 18MΩ H2O (Fe-NA). The Fe-EDTA solution was achieved by combining ferric nitrate (Fe(NO3)3 9H2O, Sigma, St. Louis, Mo., USA) with hydroxyethyl ethylenediamine triacetic acid (H3HEDTA, Sigma, St. Louis, Mo., USA) dissolved in sodium hydroxide (NaOH, Sigma, St. Louis, Mo., USA) to represent an anionic chelate of dissolved NaFeEDTA with final Fe concentration of 77 μM.
Cornish-cross fertile broiler eggs (n=70) were obtained from a commercial hatchery (Moyer's chicks, Quakertown, Pa., USA) and incubated until hatching. All methods were performed in accordance with the relevant guidelines and regulations. […]

The next test has as its system intestinal villi. Kind of test: Intraamniotic administration: intestinal functionality (goblet cell number, villi length and width).
Source text: as §1
For intraamniotic administration, eggs (n=40) containing viable embryos were weighed and randomly assigned to seven groups (n≥5) based on weight distribution. At day 17 of incubation, extracts/Fe solutions (1 mL) were injected into the amniotic fluid via a 21-gauge needle for the seven treatment groups as follows: (1) non-injected (NI); (2) 18MΩ H2O (H2O); (3) Fe solution (Fe); (4) Fe-EDTA solution (Fe-EDTA); (5) Fe-NA solution (Fe-NA); (6) Control white flour extract (C WF); (7) Biofortified white flour extract (B WF) and eggs were subsequently incubated for four days until hatch. Chicks were euthanized by CO2 exposure after hatching and all tissues were collected.
Intestinal functionality and short-chain fatty acid (SCFA) analysis. […] Samples were quantified via GC-MS using a TRACE™ 1310 gas chromatograph (Thermo Fisher Scientific, Waltham, Mass., USA) and a TraceGOLD™ TG-WaxMS A column (Thermo Fisher Scientific, Waltham, Mass., USA).

Setting [3] is: relative to other treatment groups.

With Fe-EDTA, the “abundance of Clostridium in cecum” value in test [1] (relative to C-WF) is “significantly increased”. Also, the “abundance of Escherichia in cecum” value in test [1] (relative to Fe-NA) is listed as “significantly increased”. The “Blood serum Fe concentration” value in test [2] is “significantly elevated”. In the test with intestinal villi (relative to all treatment groups), the Intestinal villi width result was “increased significantly”. Further, in the test with intestinal villi (setting [3]), the “Goblet cell number in intestinal villi” value is on record as “decreased significantly” and the Intestinal villi length result was “increased significantly”.
